Measurements: paper PMC12024234, “Antioxidant, Anti-Inflammatory, and Oral Bioavailability of Novel Sulfonamide Derivatives of Gallic Acid” (Antioxidants, 2025)
Values joined by “and” are separate entries in the source; they are usually repeats but may differ in a detail not shown here. Equal entries are not always repeated.

Experiments:
HIEC-6 cells = test: Cell viability CCK-8 assay in HIEC-6; format: cell-based, Human; settings: 24 h incubation
Description: Human intestinal epithelial cells (HIEC-6), originally obtained from the American Type Culture Collection (ATCC), were cultured in Opti-MEM™ I Reduced Serum Medium (Cat. No. 31985) supplemented with 20 mM HEPES, 10 mM L-glutamine, 10 ng/mL epidermal growth factor, and 4% fetal bovine serum (FBS) (New York, NY, USA). Cells were maintained in a humidified 5% CO2 incubator at 37 °C. Cell viability was assessed using the CCK-8 assay, a colorimetric method based on the reduction of water-soluble tetrazolium salts (WST-8) to a water-soluble formazan dye, with the resulting color intensity proportional to the number of viable cells. Briefly, cells were harvested at approximately 80% confluence, detached using trypsin-EDTA, and centrifuged at 1000 rpm for 5 min. The cell pellet was resuspended in fresh medium, and the density was adjusted to 1 × 10^6 cells/mL. A volume of 100 µL (1 × 10^5 cells/well) was seeded into a 96-well plate, with one well containing the medium only as background control. […] Subsequently, 10 µL of CCK-8 reagent was added to each well, and the plate was incubated for 4 h. Absorbance was measured at 450 nm using a microplate reader, results are expressed as the mean ± standard deviation (SD).

[1] = target: Bovine Serum Albumin (BSA) (Bos taurus, UniProt P02769); test: Protein denaturation assay; format: biochemical; settings: at 100 nM and higher concentrations (range 1–1000 nM)
Description: The anti-inflammatory potential of the compounds was evaluated using a protein denaturation assay, a well-established method to assess the capacity of test substances to inhibit protein denaturation, a key marker of inflammation. […] After heating, the samples were allowed to cool to room temperature, and the turbidity of the solutions, indicative of protein precipitation, was measured spectrophotometrically at 660 nm. A reduction in turbidity corresponds to the inhibition of protein denaturation, reflecting the anti-inflammatory activity of the tested compounds.

[2] = Oral bioavailability / pharmacokinetics in rats; format: in vivo, Sprague Dawley rats; settings: for Cmax / AUC(0-inf) / AUC(0-t) / CL/F / half-life / MRT inf / Tmax: male, Sprague Dawley; for Cmax / AUC(0-inf) / AUC(0-t) / CL/F / half-life / MRT inf / Tmax / Vz: rat serum; for Cmax: 100 mg/kg (table: 100 mg dose); for AUC(0-inf) / AUC(0-t) / CL/F / half-life / MRT inf / Tmax / Vz / Distribution volume at the terminal phase (Vz) relative to GA: 100 mg/kg; for MRT inf: n = 6, read-out: MRT0–∞; for Tmax / Distribution volume at the terminal phase (Vz) relative to GA: rat; for Tmax: serum, po
Description: Male Sprague Dawley rats, aged 7–9 weeks and weighing 220 ± 20 g on average, were used for bioavailability studies. The animals were housed in the Laboratory Animal Research Unit at the University of Petra Pharmaceutical Center under controlled conditions: a temperature of 23 ± 2 °C, humidity of 55–65%, and a 12 h light/dark cycle. Prior to the experiments, the rats underwent a 10-day acclimatization period with free access to standard food and water. All procedures complied with the University of Petra’s animal use guidelines, which adhere to the standards of the Federation of European Laboratory Animal Sciences Association (FELASA). The rats were divided into three groups (n = 6 per group) and administered suspensions of GA, 3,4,5-TMBS, or 3,4,5-THBS prepared in 5% carboxymethylcellulose. Each compound was administered orally at a dose of 100 mg/kg, based on previous studies. Blood samples were collected from the retro-orbital plexus at 0.5, 1, 2, 3, 4, 6, 10, and 24 h post-administration. The samples were centrifuged at 5000 rpm for 10 min, and the serum was mixed with acetonitrile in a 1:3 ratio. After a second centrifugation at 5000 rpm for 15 min, the supernatant was collected for high-performance liquid chromatography (HPLC) analysis. HPLC analysis was conducted using a Shimadzu Class VP series system equipped with an LC-10AT VP pump, an SIL-10AD VP autosampler, and an SCL-10AVP system (Shimadzu, Kyoto, Japan). A C18 column (25 cm × 4.6 mm, 5 μm) was used, with a photodiode array detector set to a wavelength range of 200–400 nm. The mobile phase for TMBS and THBS consisted of a 50:50 (v/v) mixture of deionized water and acetonitrile containing 0.1% trifluoroacetic acid, flowing at 1 mL/min. For GA, the mobile phase was a 70:30 mixture of methanol and a water/sulfuric acid solution (100:2), also at a flow rate of 1 mL/min. The retention times for THBS and TMBS were 2.39 and 3.47 min, respectively, while GA eluted at 2.4 min, all detected at 254 nm. Results were analyzed using Lab Solution Software LC (version 5.3) and represent the average of three measurements.

[3] = DPPH radical scavenging assay; settings: for DPPH radical scavenging activity (in words): across tested concentrations 1 to 1000 μM
Description: (§1) The antioxidant properties of the compounds under study were examined using the 2,2-Diphenyl-1-picrylhydrazyl (DPPH) assay, following a well-established protocol. A DPPH solution was prepared at a concentration of 0.1 mM in methanol. […] To ensure proper reaction, the mixtures were kept in the dark and incubated at room temperature for 30 min. After incubation, the absorbance of each sample was measured at 517 nm using a UV-VIS spectrophotometer. Gallic acid was used as the reference standard, and methanol served as the blank control.
The ability of the compounds to scavenge free radicals was determined by observing the reduction of DPPH at 517 nm, with lower absorbance values indicating higher antioxidant activity. The half-maximal inhibitory concentration (IC50), defined as the concentration of the compound needed to neutralize 50% of the DPPH radicals, was calculated from the dose–response curve. All experiments were performed in triplicate, and the results are reported as the mean of three independent trials. This method is widely recognized for its reliability and reproducibility in evaluating the antioxidant potential of chemical compounds.

CYP2D6 = target: T1, CYP2D6 (Homo sapiens, UniProt P10635); test: Metabolism by cytochrome P450 2D6 (CypExpress), HPLC; format: in vitro ADME
T1 construct: purchased Sigma Aldrich C4982

[4] = DPPH assay on supernatant after CYP2D6 metabolism
Description: as §1
To further assess the scavenging activity of 3,4,5-TMBS metabolites, an antioxidant assay was conducted after 3 and 4 h following the metabolism. After both 3 h and 4 h reaction periods, the enzyme was separated, and the resulting supernatant was utilized for the DPPH assay. Findings regarding the antioxidant activity of 3,4,5-TMBS, post-metabolism, at these time points, in comparison to GA and 3,4,5-THBS at the same concentration, are illustrated in Figure 9.

T1 sequence (P10635 whole entry): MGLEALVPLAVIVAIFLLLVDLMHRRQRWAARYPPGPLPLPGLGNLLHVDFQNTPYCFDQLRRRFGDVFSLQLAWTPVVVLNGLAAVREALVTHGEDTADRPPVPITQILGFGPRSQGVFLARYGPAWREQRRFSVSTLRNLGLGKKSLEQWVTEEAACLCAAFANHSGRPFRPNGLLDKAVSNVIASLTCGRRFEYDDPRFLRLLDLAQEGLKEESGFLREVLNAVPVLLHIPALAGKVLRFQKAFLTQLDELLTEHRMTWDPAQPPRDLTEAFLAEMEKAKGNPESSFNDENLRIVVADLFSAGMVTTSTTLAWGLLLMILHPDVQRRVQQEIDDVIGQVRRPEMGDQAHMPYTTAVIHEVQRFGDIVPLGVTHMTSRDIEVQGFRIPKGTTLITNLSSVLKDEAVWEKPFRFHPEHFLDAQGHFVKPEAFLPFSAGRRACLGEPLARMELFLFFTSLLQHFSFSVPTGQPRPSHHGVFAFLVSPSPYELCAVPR
Bovine Serum Albumin (BSA), sequence (P02769 25-607): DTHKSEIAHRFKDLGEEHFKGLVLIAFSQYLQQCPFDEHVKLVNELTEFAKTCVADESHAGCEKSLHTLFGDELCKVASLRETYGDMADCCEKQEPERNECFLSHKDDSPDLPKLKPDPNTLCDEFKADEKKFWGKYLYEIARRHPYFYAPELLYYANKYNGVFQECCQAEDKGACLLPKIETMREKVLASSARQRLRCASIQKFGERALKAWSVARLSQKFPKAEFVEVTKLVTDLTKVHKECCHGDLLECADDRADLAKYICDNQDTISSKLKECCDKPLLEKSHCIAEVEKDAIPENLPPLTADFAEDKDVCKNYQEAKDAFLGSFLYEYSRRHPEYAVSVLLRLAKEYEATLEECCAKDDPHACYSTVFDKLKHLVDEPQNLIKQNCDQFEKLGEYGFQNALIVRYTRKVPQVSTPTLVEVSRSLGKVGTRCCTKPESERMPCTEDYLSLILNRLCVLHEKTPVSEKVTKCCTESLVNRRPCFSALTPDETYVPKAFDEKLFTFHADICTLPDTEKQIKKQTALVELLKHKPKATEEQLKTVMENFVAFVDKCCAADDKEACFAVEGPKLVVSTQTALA

Row | Cmax ([2]; n = 6) | AUC(0-inf) ([2]; n = 6) | AUC(0-t) ([2]; n = 6) | CL/F ([2]; n = 6) | half-life ([2]; n = 6) | MRT inf [2] | Tmax [2] | Tmax ([2]; n = 6) | Vz ([2]; n = 6) | Compound | IC50 (HIEC-6 cells) | IC50 (HIEC-6 cells; Homo sapiens, HIEC-6, 24 h) | Distribution volume at the terminal phase (Vz) relative to GA [2] | other results
1 | 25.8 ± 6.03 µg/mL | 386 ± 43.8 µg·h/mL | 173 ± 49.3 µg·h/mL | 0.37 L/h/kg | 7.17 ± 1.62 h | 11.9 ± 0.61 h | 2.87 h | 2.88 ± 1.31 h | 3.20 ± 0.55 (mg)/(μg/mL) | COc1cc(S(N)(=O)=O)cc(OC)c1OC [3,4,5-TMBS, 3,4,5-trimethoxybenzenesulfonamide] | 33.4 ± 0.7 µM | 33 µM | approximately ten-fold lower than that of GA | Anti-inflammatory activity (inhibition of protein denaturation) compared to ibuprofen [1]: significant increase in anti-inflammatory activity; DPPH radical scavenging activity (in words) [3]: negligible effects; DPPH radical scavenging activity (in words) ([3]; listed as TMBS): minimal scavenging activity; Metabolism by CYP2D6 (concentration) (CYP2D6; 1000 µM, 1 h): 754 ± 35.5 µM; Metabolism by CYP2D6 (concentration) (CYP2D6; 1000 µM, 3 h): 860.62 ± 0.71 µM; Metabolism by CYP2D6 (concentration) (CYP2D6; 1500 µM, 1 h): 984 ± 161 µM; Metabolism by CYP2D6 (concentration) (CYP2D6; 1500 µM, 3 h): 1241 ± 12.2 µM; Percentage metabolized by CYP2D6 (CYP2D6; 1500 µM, one-hour time point): 65% and 65.5%; DPPH scavenging activity after CYP2D6 metabolism ([4]; 1000 µM, after four hours): 45%; DPPH scavenging activity after CYP2D6 metabolism ([4]; 1000 µM, after three hours): 35%; DPPH scavenging activity after CYP2D6 metabolism ([4]; 2000 µM, after three and four hours): up to 61%
2 | 9.56 ± 1.9 µg/mL | 24.2 ± 7.37 µg·h/mL | 24.2 ± 0.27 µg·h/mL | 4.39 L/h/kg | 2.1 ± 1.3 h | 2.69 ± 0.36 h | 2 h | 2 ± 0.1 h | 7.39 ± 2.16 (mg)/(μg/mL) | NS(=O)(=O)c1cc(O)c(O)c(O)c1 [3,4,5-THBS, 3,4,5-trihydroxybenzenesulfonamide] | 35.5 ± 1.52 µM | 35 µM | approximately ten-fold lower than that of GA | EC50 [3]: ~27 µM; DPPH radical scavenging activity ([3]; at 1000 µM): exceeding 90%; ROS scavenging activity ([3]; at 1000 µM (abstract)): 93%
